Source: US12109192B2, “Organic acid addition salts of S-pindolol” (ACTIMED THERAPEUTICS LTD, priority 2020, dated 2024)
Values after ≈ are worked out from the molar mass of the structure shown. Like-named read-outs stand apart in the source and are kept apart here.

How the values were obtained:
[1] = as measured at 25° C.; for a monocarboxylic acid pKa1 is the pKa; cited from earlier work
[2] = Dynamic vapour sorption (DVS); assay type: physicochemical; details: for DVS mass uptake / DVS mass uptake as equivalents of water: at 90% RH, 25° C.; for solid form after DVS (XRPD): post-DVS; for hygroscopicity: DVS up to 90% RH
Description: Approximately 10-20 mg of sample was placed into a mesh vapour sorption balance pan and loaded into an Intrinsic dynamic vapour sorption balance by Surface Measurement Systems. The sample was subjected to a ramping profile from 40-90% relative humidity (RH) at 10% increments, maintaining the sample at each step until a stable weight had been achieved (dm/dt 0.004%, minimum step length 30 minutes, maximum step length 500 minutes) at 25° C. After completion of the sorption cycle, the sample was dried using the same procedure to 0% RH and then a second sorption cycle back to 40% RH. Two cycles were performed. The weight change during the sorption/desorption cycles were plotted, allowing for the hygroscopic nature of the sample to be determined. XRPD analysis was then carried out on any solid retained.

Thermodynamic solubility = details: unbuffered water, thermodynamic from solid

DVS mass uptake [2] | DVS mass uptake as equivalents of water [2] | solid form after DVS (XRPD) [2] | SMILES | pKa1 [1] | other results
 |  |  | O=C(O)c1cccc2ccccc12 [1-naphthoic acid] | 3.67 | 
 |  |  | O=C(O)c1ccc2ccccc2c1 [2-naphthoic acid] | 4.16 | 
 |  |  | O=C(O)[C@@H](O)c1ccccc1 [S-(+)-mandelic acid] | 3.37 | 
0.23 wt. % | 0.05 eq. water | Pattern 1 retained, mass uptake | CC(C)NC[C@H](O)COc1cccc2[nH]ccc12.O=C(O)c1ccccc1 [S-pindolol benzoate Pattern 1, S-pindolol benzoate] |  | Thermodynamic solubility, free base concentration (pH 1.2): 29.9 mg/mL; solid form after thermodynamic solubility experiment (pH 1.2): Converted to amorphous.; Thermodynamic solubility, free base concentration (pH 4.5): 20.1 mg/mL; solid form after thermodynamic solubility experiment (pH 4.5): Converted to amorphous.; Thermodynamic solubility, free base concentration (pH 6.8): 17.4 mg/mL; solid form after thermodynamic solubility experiment (pH 6.8): Pattern 1 retained.
 |  | Pattern 2 retained, organic solvent | CC(C)NC[C@H](O)COc1cccc2[nH]ccc12.O=C(O)c1ccccc1 [S-pindolol benzoate Pattern 2, S-pindolol benzoate] |  | hygroscopicity [2]: non-hygroscopic; Thermodynamic solubility, free base concentration (pH 1.2): 23.5 mg/mL; solid form after thermodynamic solubility experiment (pH 1.2): Salt disproportionated.; Thermodynamic solubility, free base concentration (pH 4.5): 17.6 mg/mL; solid form after thermodynamic solubility experiment (pH 4.5): Pattern 2 retained.; Thermodynamic solubility, free base concentration (pH 6.8): 9.9 mg/mL; solid form after thermodynamic solubility experiment (pH 6.8): Pattern 2 retained.
0.36 wt. % | 0.05 eq. water | remained unchanged | CC(C)NC[C@H](O)COc1cccc2[nH]ccc12 [S-pindolol free base, (2S)-1-(1H-indol-4-yloxy)-3-(propan-2-ylamino)propan-2-ol, reference compound] |  | hygroscopicity [2]: slightly hygroscopic; solubility thermodynamic (Thermodynamic solubility): 1.8 mg/mL (≈ 7.25 mM)
0.70 wt. % | 0.14 eq. water | retained | CC(C)NC[C@H](O)COc1cccc2[nH]ccc12.O=C(O)CCC(=O)O [S-pindolol succinate Pattern 1, S-pindolol succinate] |  | 
 |  |  | O=C(O)CCCC(=O)O [glutaric acid] | 4.34 | 
 |  |  | O=C(O)Cc1ccccc1 [phenylacetic acid] | 4.31 | 
 |  |  | Cc1ccccc1C(=O)O [toluic acid] | 4-5 | 
